Patent publication US20090048303A1, “Indole-2-carboxamidine derivatives as nmda receptor antago” (priority 2004, published 2009)
Like-named read-outs stand apart in the source and are kept apart here.

Experiments:
[1] = target: T1, NMDA receptors of rat cortical neurons (Rattus norvegicus, UniProt Q00960); test: NMDA antagonist potency by intracellular calcium measurement (plate reader fluorimeter) in rat cortical cell culture; format: cell-based
T1 construct: primary neocortical cell cultures derived from 17 day old Charles River rat embryos; endogenous in cells; host or cells: primary rat embryonic (E17) neocortical cell culture, 3-7 days in vitro
T1 sequence (Q00960 27-1482, other chains not shown): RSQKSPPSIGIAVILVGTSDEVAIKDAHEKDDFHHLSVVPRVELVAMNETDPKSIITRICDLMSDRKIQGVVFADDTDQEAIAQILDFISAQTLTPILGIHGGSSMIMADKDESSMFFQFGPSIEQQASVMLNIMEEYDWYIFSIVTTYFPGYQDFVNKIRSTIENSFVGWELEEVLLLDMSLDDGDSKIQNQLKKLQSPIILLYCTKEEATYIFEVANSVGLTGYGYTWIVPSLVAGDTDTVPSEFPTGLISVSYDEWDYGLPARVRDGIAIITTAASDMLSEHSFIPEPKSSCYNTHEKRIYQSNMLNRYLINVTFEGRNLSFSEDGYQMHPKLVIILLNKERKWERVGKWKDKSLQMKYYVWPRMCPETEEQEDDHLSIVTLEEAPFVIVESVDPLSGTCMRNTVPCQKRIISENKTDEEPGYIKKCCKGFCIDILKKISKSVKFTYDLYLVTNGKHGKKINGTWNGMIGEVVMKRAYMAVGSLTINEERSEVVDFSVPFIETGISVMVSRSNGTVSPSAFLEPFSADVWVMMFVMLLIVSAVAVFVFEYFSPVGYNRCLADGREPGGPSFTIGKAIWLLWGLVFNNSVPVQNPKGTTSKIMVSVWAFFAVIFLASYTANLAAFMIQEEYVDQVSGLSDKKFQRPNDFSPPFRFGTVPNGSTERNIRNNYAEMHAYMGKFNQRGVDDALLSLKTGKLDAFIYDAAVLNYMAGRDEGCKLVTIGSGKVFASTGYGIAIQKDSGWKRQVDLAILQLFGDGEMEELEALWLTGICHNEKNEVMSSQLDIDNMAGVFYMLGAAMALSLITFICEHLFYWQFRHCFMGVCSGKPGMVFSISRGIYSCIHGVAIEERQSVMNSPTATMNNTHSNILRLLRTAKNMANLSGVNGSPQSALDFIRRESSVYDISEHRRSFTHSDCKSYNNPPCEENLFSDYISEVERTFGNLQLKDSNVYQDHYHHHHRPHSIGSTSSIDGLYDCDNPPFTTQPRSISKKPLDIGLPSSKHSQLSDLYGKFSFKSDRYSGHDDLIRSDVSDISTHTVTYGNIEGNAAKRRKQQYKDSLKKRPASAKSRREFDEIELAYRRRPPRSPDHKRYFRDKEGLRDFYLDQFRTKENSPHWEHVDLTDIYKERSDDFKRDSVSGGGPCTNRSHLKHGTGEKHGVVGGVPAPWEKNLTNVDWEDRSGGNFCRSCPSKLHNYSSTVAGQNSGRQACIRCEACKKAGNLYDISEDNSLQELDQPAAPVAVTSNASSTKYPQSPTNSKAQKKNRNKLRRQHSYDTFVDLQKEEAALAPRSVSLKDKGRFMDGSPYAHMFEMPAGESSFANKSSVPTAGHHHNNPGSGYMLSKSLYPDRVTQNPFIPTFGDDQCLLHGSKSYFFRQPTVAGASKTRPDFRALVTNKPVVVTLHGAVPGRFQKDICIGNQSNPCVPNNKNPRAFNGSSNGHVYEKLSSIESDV
Experimental: Assessment of NMDA Antagonist Potency In Vitro by Measurement of Intracellular Calcium Concentration with a Plate Reader Fluorimeter in Rat Cortical Cell Culture
The intracellular calcium measurements were carried out on primary neocortical cell cultures derived from 17 day old Charles River rat embryos (for the details on the preparation of neocortical cell culture see Johnson, M. I.; Bunge, R. P. (1992): Primary cell cultures of peripheral and central neurons and glia. In: Protocols for Neural Cell Culture, eds: Fedoroff, S.; Richardson A., The Humana Press Inc., 51-75.) After isolation the cells were plated onto standard 96-well microplates and the cultures were maintained in an atmosphere of 95% air-5% CO2 at 37° C. until the calcium measurements.
The cultures were used for the intracellular calcium measurements after 3-7 days in vitro. Before the measurement the cells were loaded with a fluorescent Ca^2+-sensitive dye, Fluo-4/AM (2 μM). To stop the loading the cells were washed twice with the solution used for the measurement (140 mM NaCl, 5 mM KCl, 2 mM CaCl2, 5 mM HEPES, 5 mM HEPES-Na, 20 mM glucose, 10 μM glycine, pH=7.4). After washing the test compounds were added to the cells in the above solution (90 μl/well). Intracellular calcium measurements were carried out with a plate reader fluorimeter: elevation of Fluo-4-fluorescence and so, intracellular calcium was induced by application of 40 μM NMDA. Inhibitory potency of the test compounds was assessed by measuring the reduction in the calcium elevation in the presence of different concentrations of the compounds.
(§1) Dose-response curves and IC50 values were calculated by using data derived from at least three independent experiments. Inhibitory potency of a compound at a single concentration point was expressed as percent inhibition of the NMDA response. Sigmoidal concentration-inhibition curves were fit to the data and IC50 values were determined as the concentration that produces half of the maximal inhibition caused by the compound.

[2] = target: T2, recombinant NMDA receptors NR1(−3)/NR2A (Homo sapiens, UniProt Q05586+Q12879); test: Inhibition of NMDA evoked cytosolic calcium elevation in HEK 293 cells expressing recombinant NR1-3/NR2A; format: cell-based; conditions: NR1-3/NR2A subunit expressing cells; for inhibition at 10 µM / inhibition at 15 µM: HEK293
T2 construct: expressed in transfected cells
T2 sequence (Q12879 23-1464, other chains not shown): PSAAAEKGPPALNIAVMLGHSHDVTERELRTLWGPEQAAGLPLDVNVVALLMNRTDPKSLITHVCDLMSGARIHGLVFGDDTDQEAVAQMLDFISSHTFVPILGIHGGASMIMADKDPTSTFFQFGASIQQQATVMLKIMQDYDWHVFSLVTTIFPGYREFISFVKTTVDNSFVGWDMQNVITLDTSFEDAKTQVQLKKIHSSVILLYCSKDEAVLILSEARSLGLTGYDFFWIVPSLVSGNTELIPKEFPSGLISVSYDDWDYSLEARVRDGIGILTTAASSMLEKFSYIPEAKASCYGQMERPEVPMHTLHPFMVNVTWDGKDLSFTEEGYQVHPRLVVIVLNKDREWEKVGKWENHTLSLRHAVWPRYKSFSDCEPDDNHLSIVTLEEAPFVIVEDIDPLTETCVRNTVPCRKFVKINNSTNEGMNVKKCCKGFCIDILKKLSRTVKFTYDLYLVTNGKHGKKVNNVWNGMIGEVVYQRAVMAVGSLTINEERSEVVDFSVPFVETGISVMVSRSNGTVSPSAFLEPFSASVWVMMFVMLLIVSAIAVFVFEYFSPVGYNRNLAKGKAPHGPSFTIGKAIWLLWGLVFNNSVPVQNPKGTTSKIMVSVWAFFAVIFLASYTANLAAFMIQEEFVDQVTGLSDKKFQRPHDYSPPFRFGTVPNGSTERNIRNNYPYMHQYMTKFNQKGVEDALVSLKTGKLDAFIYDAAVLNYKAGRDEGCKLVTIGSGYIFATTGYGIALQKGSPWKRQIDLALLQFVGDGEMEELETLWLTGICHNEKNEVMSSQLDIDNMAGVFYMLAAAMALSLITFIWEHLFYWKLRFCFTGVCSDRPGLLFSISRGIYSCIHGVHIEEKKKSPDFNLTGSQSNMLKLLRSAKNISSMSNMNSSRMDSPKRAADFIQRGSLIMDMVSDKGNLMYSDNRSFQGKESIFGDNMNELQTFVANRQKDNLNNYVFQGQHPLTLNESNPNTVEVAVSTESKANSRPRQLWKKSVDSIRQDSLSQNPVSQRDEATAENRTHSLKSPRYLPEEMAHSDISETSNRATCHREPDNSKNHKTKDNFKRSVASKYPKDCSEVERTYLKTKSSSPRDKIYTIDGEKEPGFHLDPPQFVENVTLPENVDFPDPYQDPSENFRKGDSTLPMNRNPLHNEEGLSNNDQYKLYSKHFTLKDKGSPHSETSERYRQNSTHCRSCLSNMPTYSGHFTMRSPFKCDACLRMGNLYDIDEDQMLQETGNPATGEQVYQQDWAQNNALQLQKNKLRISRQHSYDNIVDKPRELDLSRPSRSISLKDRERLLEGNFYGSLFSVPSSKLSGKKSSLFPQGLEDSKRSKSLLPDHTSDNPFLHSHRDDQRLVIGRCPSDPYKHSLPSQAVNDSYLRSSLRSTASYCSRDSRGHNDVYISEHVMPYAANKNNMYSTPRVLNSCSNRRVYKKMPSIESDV
Experimental: (2003)]. […] Compounds were tested for their inhibitory action on NMDA evoked cytosolic calcium elevations in fluorescent calcium measurements. Studies were performed 48-72 h after addition of the inducing agent. Ketamine (500 μM) was also present during the induction in order to prevent cytotoxicity.
as §1

[3] = cited from earlier work
[4] = rat cortical cells, 40 μM NMDA, fluorimetric method, read-out: Cortical cells IC50

SMILES | IC50 [1, 4] [nM] | also measured
O=c1[nH]c2ccc([S+]([O-])CCN3CCC(Cc4ccc(F)cc4)CC3)cc2o1 (stereo not shown) [CI-1041, 6-{2-[4-(4-fluoro-benzyl)-piperidin-1-yl]-ethanesulfinyl}-3H-benzooxazol-2-one, reference compound] | 6.6 | –
C[C@@H]([C@@H](O)c1ccc(O)cc1)N1CCC(O)(c2ccccc2)CC1 [CP 101,606, (1S,2S)-1-(4-hydroxyphenyl)-2-(4-hydroxy-4-phenylpiperidine-1-yl)-1-propanol] | – | inhibition at 10 µM ([2]; 10 μM): 2.5%; effect on neuropathic pain in clinical trial [3]: reduced neuropathic pain; tolerability in clinical trial ([3]; no psychotomimetic effects, hallucinations, dysphoria): well tolerated
Cc1ccc(CC2(O)CCN(CCOc3ccc(O)cc3)CC2)cc1 [Co-101244, 1-[2-(4-hydroxyphenoxy)ethyl]-4-hydroxy-4-(4-methylbenzyl)piperidine, reference compound] | 23 | –
CCOc1ccccc1CNC(=N)c1cc2ccccc2[nH]1 [Compound 19] | 75 | –
N=C(NCc1ccccc1Br)c1cc2ccccc2[nH]1 [Compound 25] | 277 | –
N=C(NCc1cc(F)ccc1F)c1cc2ccccc2[nH]1 [Compound 30] | 224 | –
Cc1ccccc1C/N=C(\N)c1cc2ccccc2[nH]1 [Compound 32] | 170 | –
COc1ccc(OC)c(CNC(=N)c2cc3ccccc3[nH]2)c1 [Compound 35] | 341 | –
N=C(NCc1cc(Cl)cc(Cl)c1)c1cc2ccccc2[nH]1 [Compound 38] | 159 | –
Cc1ccccc1CNC(=N)c1cc2cc(F)ccc2[nH]1 [Compound 68] | 160 | –
COc1cccc(OC)c1C/N=C(\N)c1cc2cc(F)ccc2[nH]1 [Compound 72] | 17 | –
N=C(NCc1cc(Cl)cc(Cl)c1)c1cc2cc(F)ccc2[nH]1 [Compound 73] | 209 | –
N=C(NCc1cccc(F)c1)c1cc2cc(Cl)ccc2[nH]1 [Compound 81] | 432 | –
COc1ccc(CNC(=N)c2cc3cc(Cl)ccc3[nH]2)c(OC)c1 [Compound 83] | 369 | –
N=C(NCc1ccccc1Cl)c1cc2cc(Cl)ccc2[nH]1 [Compound 87] | 422 | –
COc1cccc(CNC(=N)c2cc3cc(Cl)ccc3[nH]2)c1 [Compound 92] | 319 | –

SMILES | IC50 [1, 4] [nM] | also measured
CCOc1ccccc1CNC(=N)c1cc2cc(Cl)ccc2[nH]1 [Compound 94] | 213 | –
N=C(NCc1ccccc1OC(F)(F)F)c1cc2cc(Cl)ccc2[nH]1 [Compound 106] | 198 | –
N=C(NCc1ccccc1F)c1cc2cc(Cl)ccc2[nH]1 [Compound 107] | 493 | –
N=C(NCc1c(F)cccc1F)c1cc2cc(Cl)ccc2[nH]1 [Compound 108] | 742 | –
Cc1ccccc1CNC(=N)c1cc2cc(Cl)ccc2[nH]1 [Compound 109] | 218 | –
COc1ccc(CNC(=N)c2cc3cc(OC)ccc3[nH]2)c(OC)c1 [Compound 123] | 129 | –
COc1ccc2[nH]c(C(=N)NCc3cccnc3)cc2c1 [Compound 134] | 100 | inhibition at 15 µM [2]: 6.1%
COc1ccc2[nH]c(C(=N)NCc3ccccc3Br)cc2c1 [Compound 138] | 232 | –
COc1ccc2[nH]c(C(=N)NCc3cc(F)ccc3F)cc2c1 [Compound 142] | 202 | –
COc1ccc2[nH]c(C(=N)NCc3c(F)cccc3F)cc2c1 [Compound 143] | 158 | –
COc1ccc2[nH]c(C(=N)NCc3cc(F)cc(F)c3)cc2c1 [Compound 145] | 318 | –
COc1ccc(OC)c(CNC(=N)c2cc3cc(OC)ccc3[nH]2)c1 [Compound 146] | 287 | –
COc1ccc2[nH]c(C(=N)NCc3c(OC)cccc3OC)cc2c1 [Compound 147] | 26 | inhibition at 15 µM [2]: 21.7%
O=C(CCN1CCC(Cc2ccc(F)cc2)CC1)c1ccc2[nH]c(=O)oc2c1 [EMD 95885, reference compound] | 35 | NR1-3/NR2A % inhibition at 10 μM ([2]; 10 μM): 0.1%
CC(C(O)c1ccc(O)cc1)N1CCC(Cc2ccccc2)CC1 (stereo not drawn) [Erythro-ifenprodil, erythro-2-(4-benzylpiperidino)-1-(4-hydroxyphenyl)-1-propanol] | – | inhibition at 10 µM ([2]; 10 μM): -2.7%
CC(CN1CCC(Cc2ccccc2)CC1)C(O)c1ccc(O)cc1 (stereo not drawn) [Ro 25.6981, R-(R*,S*)-1-(4-hydroxyphenyl)-2-methyl-3-[4-(phenylmethyl)piperidin-1-yl]-1-propanol, reference compound] | – | IC50 [1]: 159 nM; inhibition at 10 µM ([2]; 10 μM): 1%

Second part, led by results:

IC50 [1, 4] [nM] | SMILES | also measured
418 | N=C(NCc1cccc(Br)c1)c1cc2ccccc2[nH]1 [Compound 26] | –
232 | N=C(NCc1ccccc1F)c1cc2ccccc2[nH]1 [Compound 29] | –
143 | N=C(NCc1c(F)cccc1F)c1cc2ccccc2[nH]1 [Compound 31] | –
5.4 | COc1cccc(OC)c1CNC(=N)c1cc2ccccc2[nH]1 [Compound 36] | inhibition at 15 µM [2]: 32.1%
211 | COc1cccc(CNC(=N)c2cc3cc(F)ccc3[nH]2)c1 [Compound 57] | –
51 | CCOc1ccccc1CNC(=N)c1cc2cc(F)ccc2[nH]1 [Compound 59] | –
359 | N=C(NCc1cc(F)ccc1F)c1cc2cc(F)ccc2[nH]1 [Compound 67] | –
594 | N=C(NCc1cc(F)cc(F)c1)c1cc2cc(F)ccc2[nH]1 [Compound 70] | –
453 | COc1ccc(OC)c(CNC(=N)c2cc3cc(F)ccc3[nH]2)c1 [Compound 71] | –
125 | N=C(NCc1cccnc1)c1cc2cc(Cl)ccc2[nH]1 [Compound 97] | –
257 | N=C(NCc1cccc(Br)c1)c1cc2cc(Cl)ccc2[nH]1 [Compound 103] | –
702 | N=C(NCc1cc(F)cc(F)c1)c1cc2cc(Cl)ccc2[nH]1 [Compound 110] | –
417 | COc1ccc(OC)c(CNC(=N)c2cc3cc(Cl)ccc3[nH]2)c1 [Compound 111] | –
69 | COc1cccc(OC)c1C/N=C(\N)c1cc2cc(Cl)ccc2[nH]1 [Compound 112] | –
224 | COc1ccc2[nH]c(C(=N)NCc3ccccc3)cc2c1 [Compound 118] | –
401 | COc1ccc2[nH]c(C(=N)NCc3ccccc3C(F)(F)F)cc2c1 [Compound 119] | –
519 | COc1ccc2[nH]c(C(=N)NCc3ccc(OC)c(OC)c3)cc2c1 [Compound 126] | –
373 | COc1ccc2[nH]c(C(=N)NCc3cccc(Cl)c3)cc2c1 [Compound 127] | –
220 | COc1ccc2[nH]c(C(=N)NCc3cccc(C)c3)cc2c1 [Compound 128] | –
52 | COc1cccc(CNC(=N)c2cc3cc(OC)ccc3[nH]2)c1 [Compound 129] | –
57 | CCOc1ccccc1CNC(=N)c1cc2cc(OC)ccc2[nH]1 [Compound 131] | –
397 | COc1ccc2[nH]c(C(=N)NCc3cccc(Br)c3)cc2c1 [Compound 139] | –
